Data published in patent US20090196912A1, “Pyridinylamines” (GPC Botech AG, priority 2004, published 2009).

Experiments:
RICK = RICK (Homo sapiens, UniProt O43353); assay: Generic kinase assay (33P-ATP, Myelin Basic Protein); assay type: biochemical; conditions: 1 h; class symbol: % inhibition at 10 μM or IC50; read-out: Inhibitory effect on target RICK
How it was run: (§1)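 Myelin basic protein was phosphorylated with [γ-33P]ATP plus unlabelled ATP (4 µM in the three-fold concentrated mix) in Tris-HCl pH 7.5, MgCl2 and DTT. Kinase was titrated to about 10% ATP turnover, and reactions ran 1 h at room temperature before EDTA stop. Incorporated 33P was captured on filter plates washed with 0.75% H3PO4 and counted by scintillation.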

RIP = target: T1, RIP (Homo sapiens, UniProt Q13546); assay: as above; assay type: biochemical; conditions: class symbol: % inhibition at 10 μM or IC50
T1 sequence (Q13546 1-671): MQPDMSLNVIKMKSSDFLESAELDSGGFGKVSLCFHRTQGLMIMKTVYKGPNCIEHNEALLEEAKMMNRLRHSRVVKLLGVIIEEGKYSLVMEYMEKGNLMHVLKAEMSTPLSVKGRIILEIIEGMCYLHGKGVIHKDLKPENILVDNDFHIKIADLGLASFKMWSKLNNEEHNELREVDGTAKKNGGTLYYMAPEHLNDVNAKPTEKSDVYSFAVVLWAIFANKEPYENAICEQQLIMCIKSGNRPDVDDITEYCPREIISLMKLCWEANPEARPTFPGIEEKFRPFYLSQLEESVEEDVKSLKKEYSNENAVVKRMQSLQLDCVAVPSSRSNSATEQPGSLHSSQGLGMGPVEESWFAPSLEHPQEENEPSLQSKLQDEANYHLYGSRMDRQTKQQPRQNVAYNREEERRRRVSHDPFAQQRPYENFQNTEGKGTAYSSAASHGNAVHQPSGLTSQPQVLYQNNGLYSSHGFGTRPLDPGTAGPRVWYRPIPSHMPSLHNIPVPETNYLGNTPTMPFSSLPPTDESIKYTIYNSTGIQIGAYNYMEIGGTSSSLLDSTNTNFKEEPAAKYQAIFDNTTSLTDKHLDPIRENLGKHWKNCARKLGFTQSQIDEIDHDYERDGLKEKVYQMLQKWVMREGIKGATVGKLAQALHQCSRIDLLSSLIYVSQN
How it was run: as §1

Sequence of RICK (O43353 whole entry, species assumed): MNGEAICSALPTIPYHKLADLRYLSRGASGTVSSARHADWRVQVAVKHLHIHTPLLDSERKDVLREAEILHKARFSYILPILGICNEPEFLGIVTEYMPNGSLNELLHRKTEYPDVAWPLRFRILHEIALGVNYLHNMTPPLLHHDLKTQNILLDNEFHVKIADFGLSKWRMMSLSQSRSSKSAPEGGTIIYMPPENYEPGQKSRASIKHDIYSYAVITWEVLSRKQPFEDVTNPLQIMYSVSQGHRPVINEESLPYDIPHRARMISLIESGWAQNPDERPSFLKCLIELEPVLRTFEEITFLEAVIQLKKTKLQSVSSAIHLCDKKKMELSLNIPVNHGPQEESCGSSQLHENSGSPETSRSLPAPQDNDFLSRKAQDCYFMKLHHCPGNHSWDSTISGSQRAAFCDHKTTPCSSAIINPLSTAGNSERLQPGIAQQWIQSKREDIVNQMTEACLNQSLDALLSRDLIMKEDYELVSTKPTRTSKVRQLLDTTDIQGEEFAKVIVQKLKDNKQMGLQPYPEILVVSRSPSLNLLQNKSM

In the case of `Clc1cccc(Nc2cncc(-c3ccncc3)c2)c1` [Compound 166, [3,4′]Bipyridinyl-5-yl-(3-chloro-phenyl)-amine], the inhibition at 10 µM (RICK) is reported as 50 to 90% and the “Inhibitory effect on target RIP” value (RIP) is reported as “A (A: 50-90% inhibition at 10 μM enzyme concentration)”.
